According to patent US7582786B2, “Synthetic catalytic free radical scavengers useful as antioxidants for prevention and therapy of disease” (Eukarion Inc., priority 1996, dated 2009):

Experiments:
[1] = SOD activity, inhibition of cytochrome C reduction by xanthine plus xanthine oxidase (Example 1); type: biochemical
Experimental: The SOD activity of the compounds was determined by evaluating the inhibition of the reduction of cytochrome C produced by the oxygen free radical generating system, xanthine plus xanthine oxidase. Cytochrome C reduction is monitored spectrophotometrically at 550 nm according to the method described in Darr et al. (1987) Arch. Biochem. Biophys. 258: 351, incorporated herein by reference. The concentration of xanthine oxidase is adjusted such that it produces a rate of reduction of cytochrome C at 550 nm of 0.025 absorbance unit per minute. Under these conditions, the amount of SOD activity required to inhibit the rate of cytochrome C reduction by 50 percent (i.e., to a rate of 0.0125 absorbance unit per minute) is defined as one unit of activity. Salen-metal complexes are identified as antioxidants if they have at least 0.1 unit of activity at a concentration of 1 mM under these standard assay conditions.

Rat brain slices = experiment: Rat brain slice ischemia/reoxygenation EPSP system; type: cell-based; settings: 50 μM C7
Experimental: A widely used assay to determine the therapeutic potential of molecules in brain ischemia (stroke) consists of evaluating their ability to prevent irreversible damage induced by an anoxic episode in brain slices maintained under physiological conditions. Rat brain slices were maintained at 35° C. in an interface chamber in an artificial cerebrospinal fluid containing: 124 mM NaCl, 3 mM KCl, 1.25 mM KH2PO4, 3 mM CaCl, 1 mM MgCl2, 26 mM NaHCO3, 10 mM D-glucose, and 2 mM L-ascorbate, continuously gassed with a mixture of O2:CO2 (95:5). The atmosphere of the chamber was also continuously gased with the mixture of O2:CO2 (95:5), except during the-anoxic episode when it was replaced by N2. Axons were electrically stimulated and the evoked excitatory post-synaptic potentials (EPSPs) were recorded using microelectrodes.
The extent of permanent damage can be quantified by measuring both the amplitude (in mV) and the initial slope (in mV/msec) of the EPSP.
After 5 minutes of baseline recording, O2 was replaced by N2 for an average of 5 minutes. O2 was then reintroduced and recording was continued for another 50 minutes. […] In contrast, recovery in untreated brain slices was only about 40% of pre-ischemia levels.
As an additional assessment of efficacy, the percentage of viable slices following repeated ischemic episodes was evaluated. […]

[2] = In vitro model for acidosis-induced mucosal injury
Rats = experiment: Ischemia-reperfusion induced kidney damage in the rat; type: in vivo; settings: 0.2 mg/kg single intravenous bolus at beginning of reperfusion
Experimental: Rats (“Untreated” and “C40” groups) were unilaterally nephrectomized. The remaining renal artery was clamped for 75 min then reperfused. Kidney function was assessed by determining creatinine levels in the blood. Where indicated, rats received C40 as a single intravenous bolus injection (0.2 mg/kg) at the beginning of the reperfusion period. Bilaterally nephrectomized rats, showing maximal creatinine levels in the absence of kidney function, died on day 2.

Compound | SOD Activity ([1]; Example 1, cytochrome C reduction) [units/mM] | SOD Activity ([1]; previously found) | percentage of viable slices following repeated ischemic episodes (Rat brain slices) [%] | protection against acidosis-induced mucosal injury [2] | kidney damage, creatinine levels in the blood (Rats)
[Cl][Mn]1[O]c2ccccc2C=NCCN=Cc2ccccc2[O]1 [Compound C7] | 575 | about 769 units/mM | 70 | protective | 
COc1cccc2c1[O][Mn]([Cl])[O]c1c(cccc1OC)C=NCCN=C2 [Compound C40] |  |  |  |  | protects against ischemia-reperfusion induced kidney damage
